Measured values published in patent US12479858B2, “Macrocyclic compounds as sting agonists and methods and uses thereof” (Lupin Limited, priority 2019, dated 2025).
Structures can show the parent of a compound that is named as a salt. Where two headings read alike, the source gives them in different places.

Key:
[1] = test system: Interferon beta (IFNβ), interleukin-6 (IL-6) and tumor necrosis factor alpha (TNFα); test: Serum and tumor cytokine levels in CT26 tumor-bearing mice (ELISA); format: in vivo, BALB/c mice; settings: 0.375 mg/kg single i.v.
Protocol: (§1) Pharmacokinetic and Pharmacodynamic Profiling and Estimation of Immune Cell Infiltration in Tumors Following Treatment with Compounds 2, 6, 8, 12 and 14
(§2) Serum and tumor cytokine levels and corresponding compound concentrations in mouse plasma were determined following single-dose intravenous administration in CT26 (murine colorectal carcinoma) tumor-bearing mice. Briefly, naïve BALB/c mice in the age group of 6-8 weeks were inoculated with 0.1 million CT-26 cells/animal in phosphate buffered saline (PBS), subcutaneously. […] Blood and tumor samples were harvested at various time points up to 24 h post-dose. Tumor samples were homogenized and prepared for cytokine estimation (ELISA) and compound concentration were determined by LC-MS/MS. Serum aliquots and tumor samples were snap-frozen and stored at −80° C. till further analysis. Serum and tumor samples were evaluated for Interferon beta (IFNβ), interleukin-6 (IL-6) and tumor necrosis factor alpha (TNFα) by enzyme linked immunosorbent assay (ELISA) using kits from R & D systems (Quantikine mouse IL-6 and TNFα kits) and PBL biosciences (Verikine mouse IFNβ kit).
Cytokine analysis from mouse serum samples: For IL-6 and TNFα estimation, 50 μL of test samples or internal standard or control were applied to wells in duplicates and incubated for 2 h at room temperature, followed by aspiration and washing four times with 400 μL of wash buffer. 100 μL of mouse IL-6 or TNFα conjugate solution was added and incubated further for 2 h at room temperature and followed later by 4 wash cycles. 100 μL of substrate solution was added to each well with addition of stop solution after 30 min. Optical density was measured at 450 nm averaged and was used for further calculations following subtraction of respective blank controls. Cytokine concentrations were determined by interpolating the optical density of samples into the reference standard curve utilizing four parameter logistic (4-PL) curve-fit. Cytokine concentrations were normalized with their respective dilution factors and represented in pg/mL. For IFNβ estimation, 100 μL test sample or internal standard or controls were applied to the wells in duplicates and incubated for 1 h at room temperature followed by three washes and addition of the anti-mouse IFNβ antibody solution with further 1 h incubation. This was followed by addition of horseradish peroxidase (HRP) solution and three washes, later addition of TMB substrate and reading the optical density at 450 nm. Optical densities were blank-subtracted and interpolated to the reference standard utilizing the four parameter logistic (4-PL) curve-fit. Cytokine concentrations were normalized with their respective dilution factors and represented in pg/mL. Tables 4 and 5 indicate cytokine levels for compounds 2, 6, 8, 12, and 14 in serum and tumor at different administered doses.
Cytokine analysis from tumor samples: Tumor samples were homogenized in a bead-based homogenizer and lysates were prepared with buffer supplemented with 1% Triton X-100 and protease inhibitors. Cytokine levels were estimated by ELISA and expressed as pg/g tumor.

[2] = Apparent solubility/extended kinetic solubility by UHPLC; format: physicochemical; settings: aqueous buffer, thermodynamic from solid, phosphate buffer, 37° C.
Summary of the method: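 About 0.5 mg solid sample, in duplicate, with 5 μL DMSO and 1 mL phosphate buffer, shaken 24 hrs at 37° C, then cooled and centrifuged. Supernatant quantified by UHPLC against a calibration curve; solubility reported in μM.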

[3] = Plasma and tumor compound concentrations in CT26 tumor-bearing mice (LC-MS/MS); format: in vivo, BALB/c mice; settings: 0.375 mg/kg single i.v.; for concentration at 3.5 h / concentration at 8 h / concentration at 12 h / concentration at 24 h: BALB/c, mouse, intravenous; for concentration at 3.5 h: 3.5 h (Table 4); for concentration at 8 h: 8 h (Table 4); for concentration at 12 h: 12 h (Table 4)
Protocol: as §1, §2
Bioanalysis of plasma and tumor samples: Plasma and tumor concentrations of test compounds were determined by LC-MS/MS method. Tumor samples were homogenized utilizing a bead-based homogenizer. Plasma samples and tumor homogenates were extracted using protein precipitation method with organic solution containing respective internal standards. Plasma and tumor concentrations were determined against respective calibration curve. Table 3 indicates the concentration of Compound 2 in plasma and tumor at different administered doses. Table 4 indicates the concentration of Compounds 6, 8, 12, and 14 in plasma and tumor at different administered doses. Table 5 indicates cytokine levels for Compound 2 in serum and tumor at different doses. Table 6 indicates cytokine levels for Compounds 6, 8, 12 and 14 in serum and tumor at 0.375 mpk.

CD3^+CD8^+ T cells = test: Estimation of immune cell infiltration in tumors (flow cytometry); format: in vivo, Balb/c mice; settings: for % CD3^+CD8^+ T cells: infiltration in tumor, 96 h post treatment, 0.375 mg/kg single i.v.; for % CD3^+CD8^+ T cells infiltrating the tumor as compared to the vehicle-treated group: single i.v. dose of 0.375 mg/kg, 96 h post treatment initiation
Protocol: Estimation of immune cell infiltration in tumors: CT-26 tumor-bearing Balb/c mice were treated intravenously with 0.375 mg/kg of test compounds and blood and tumors were processed for analysis of CD8^+, CD3^+ and CD45^+ T cells at 24 h and 96 h after start of treatment. Blood samples were subjected to RBC lysis and the cells were recovered by centrifugation. Following wash with PBS, the cells were blocked using TruStain FcX™ blocking antibody and stained with fluorophore-tagged anti-CD45, anti-CD3 and anti-CD8 antibodies. Tumor samples were minced and subjected to tissue digestion using freshly prepared collagenase-IV solution (1 mg/ml) containing DNase (0.05 mg/ml) for 1-1.5 h at 37° C. and 150-200 rpm. Single cell suspension was prepared by filtering it through a 100 μm mesh and checked for cell viability. Cells were stained with various antibodies as mentioned above. The distinct T cell subsets were analysed on FACS Canto II (BD) and percentage of each population was calculated after initial gating of CD45^+ lymphocyte population.

[4] = tumor, 24 h (Table 4), read-out: Tumor Conc.

| solubility at 24 h [2] [mM] | Plasma Conc. ([3]; 24 h (Table 4)) | concentration at 3.5 h ([3]; plasma, read-out: Plasma Conc.) [nM] | concentration at 8 h ([3]; plasma, read-out: Plasma Conc.) [nM] | concentration at 12 h ([3]; plasma, read-out: Plasma Conc.) [nM] | concentration at 3.5 h ([3]; tumor, read-out: Tumor Conc.) [nM] | concentration at 8 h ([3]; tumor, read-out: Tumor Conc.) [nM] | concentration at 12 h ([3]; tumor, read-out: Tumor Conc.) [nM] | Structure (SMILES) | Serum IFNβ ([1]; 3.5 h (Table 6)) [pg/mL] | Tumor IFNβ ([1]; 3.5 h (Table 6)) [pg/g tumor] | Serum IFNβ ([1]; 8 h (Table 6)) [pg/mL] | Tumor IFNβ ([1]; 8 h (Table 6)) [pg/g tumor] | Serum IFNβ ([1]; 12 h (Table 6)) | Tumor IFNβ ([1]; 12 h (Table 6)) [pg/g tumor] | Serum IFNβ ([1]; 24 h (Table 6)) | Tumor IFNβ ([1]; 24 h (Table 6)) [pg/g tumor] | concentration at 24 h [3, 4] [nM] | % CD3^+CD8^+ T cells (CD3^+CD8^+ T cells) [%] | % CD3^+CD8^+ T cells infiltrating the tumor as compared to the vehicle-treated group (CD3^+CD8^+ T cells) | other results |
| --- | --- | --- | --- | --- | --- | --- | --- | --- | --- | --- | --- | --- | --- | --- | --- | --- | --- | --- | --- | --- |
| 3.5 | 0.01, BLQ, | 440 ± 140 | 130 ± 60 | 50 ± 10 | 290 ± 120 | 250 ± 40 | 200 ± 50 | CCn1nc(C)cc1C(=O)Nc1nc2cc(C(N)=O)cc3c2n1C/C=C/Cn1c(NC(=O)c2cc(C)nn2CC)nc2cc(C(=O)N[C@H]4CC[C@H](c5nnn[nH]5)CC4)cc(c21)OCCCO3 [Compound 6, (E)-N-((1R,4R)-4-(1H-tetrazol-5-yl)cyclohexyl)-1,15-bis(1-ethyl-3-methyl-1H-pyrazole-5-carboxamido)-8,9,16,19-tetrahydro-7H-6,10-dioxa-2,14,15a,19a-tetraazacyclopentadeca[3,2,1-cd:8,9,10-c′d′]diindene-4,12-dicarboxamide sodium salt] | 3375 ± 528.4 | 6931 ± 1236.8 | 215 ± 39.9 | 1814 ± 369.3 | BLQ | 1916 ± 842.7 | BLQ | 506 ± 239.1 | 260 ± 30 | 13.9 ± 1.3 | increase | – |
| 5.23 | BLQ | 40 ± 10 | 20 ± 10 | 20 ± 10 | 90 ± 10 | 60 ± 10 | 60 | CCn1nc(C)cc1C(=O)Nc1nc2cc(C(N)=O)cc3c2n1C/C=C/Cn1c(NC(=O)c2cc(C)nn2CC)nc2cc(C(=O)NCCCn4cc(C(=O)O)cn4)cc(c21)OCCCO3 [Compound 8, (E)-1-(3-(12-carbamoyl-1,15-bis(1-ethyl-3-methyl-1H-pyrazole-5-carboxamido)-8,9,16,19-tetrahydro-7H-6,10-dioxa-2,14,15a,19a-tetraazacyclopentadeca[3,2,1-cd:8,9,10-c′d′]diindene-4-carboxamido)propyl)-1H-pyrazole-4-carboxylic acid sodium salt] | 20553 ± 3011.24 | 7975 ± 1164.2 | 307 ± 64.6 | 1182 ± 321.2 | 43 ± 33.5 pg/mL | 284 ± 84.2 | BLQ | 197 ± 84.7 | – | 15.5 ± 2.2 | increase | Tumor Conc. ([3]; 24 h (Table 4)): BLQ |

| Structure (SMILES) | solubility at 24 h [2] [mM] | Plasma Conc. ([3]; 24 h (Table 4)) | concentration at 3.5 h ([3]; plasma, read-out: Plasma Conc.) [nM] | concentration at 8 h ([3]; plasma, read-out: Plasma Conc.) [nM] | concentration at 12 h ([3]; plasma, read-out: Plasma Conc.) [nM] | concentration at 3.5 h ([3]; tumor, read-out: Tumor Conc.) [nM] | concentration at 8 h ([3]; tumor, read-out: Tumor Conc.) [nM] | concentration at 12 h ([3]; tumor, read-out: Tumor Conc.) [nM] | Serum IFNβ ([1]; 3.5 h (Table 6)) [pg/mL] | Tumor IFNβ ([1]; 3.5 h (Table 6)) [pg/g tumor] | Serum IFNβ ([1]; 8 h (Table 6)) [pg/mL] | Tumor IFNβ ([1]; 8 h (Table 6)) [pg/g tumor] | Serum IFNβ ([1]; 12 h (Table 6)) | Tumor IFNβ ([1]; 12 h (Table 6)) [pg/g tumor] | Serum IFNβ ([1]; 24 h (Table 6)) | Tumor IFNβ ([1]; 24 h (Table 6)) [pg/g tumor] | concentration at 24 h [3, 4] [nM] | % CD3^+CD8^+ T cells (CD3^+CD8^+ T cells) [%] | % CD3^+CD8^+ T cells infiltrating the tumor as compared to the vehicle-treated group (CD3^+CD8^+ T cells) | other results |
| --- | --- | --- | --- | --- | --- | --- | --- | --- | --- | --- | --- | --- | --- | --- | --- | --- | --- | --- | --- | --- |
| CCn1nc(C)cc1C(=O)Nc1nc2cc(C(N)=O)cc3c2n1C/C=C/Cn1c(NC(=O)c2cc(C)nn2CC)nc2cc(C(=O)N[C@H]4CC[C@H](c5nnn[nH]5)CC4)cc(c21)OC[C@@H](N1C2CCC1COC2)CO3 [Compound 12, (8S,E)-N4-((1R,4S)-4-(1H-tetrazol-5-yl)cyclohexyl)-8-(3-oxa-8-azabicyclo[3.2.1]octan-8-yl)-1,15-bis(1-ethyl-3-methyl-1H-pyrazole-5-carboxamido)-8,9,16,19-tetrahydro-7H-6,10-dioxa-2,14,15a,19a-tetraazacyclopentadeca[3,2,1-cd:8,9,10-c′d′]diindene-4,12-dicarboxamide sodium salt] | 14.2 | – | 440 ± 50 | 180 ± 50 | 90 ± 20 | 360 ± 130 | 190 ± 80 | 300 ± 120 | 4248 ± 706 | 6190 ± 687.0 | 568 ± 48.6 | 1144 ± 128.9 | 16 ± 15.7 pg/mL | 789 ± 378.2 | BLQ | 94 ± 48.3 | 130 ± 40 | 12.2 ± 0.5 | increase | concentration at 24 h ([3]; plasma, 24 h (Table 4), read-out: Plasma Conc.): 20 nM |
